In general, inhibition refers to the relative decrease from the control value, in per cent.

We go through seven compounds from patent publication US8466089B2, “Pyrazole compounds, process for their production and herbicides containing them” (Ishihara Sangyo Kaisha, Ltd., priority 2008, dated 2013).

Format in all cases: in vivo
Assay [1] deals with rice (Oryza sativa L.) (var.: Nihonbare). Briefly: Test Example 3, paddy field pot, transplanted rice. Conditions: applied 4th day after transplantation, 20th to 23rd day after application, read-out: Growth inhibition rate (%) Rice. The source says: (§1) Paddy field soil was put into a 1/1,000,000 hectare pot, and seeds of barnyardgrass (Echinochloa oryzicola vasing.) and Japanese bulrush (Scirpus juncoides) were sown and lightly covered with soil. Then, pot was left to stand in a greenhouse in a state irrigated to a water depth of from 0.5 to 1 cm, and next day or two days later, tubers of Japanese ribbon waparo (Sagittaria pygmaea) were planted. Then, the irrigated water depth was maintained to be from 3 to 4 cm, and when barnyardgrass and Japanese bulrush reached 0.5 leaf stage, and Japanese ribbon waparo reached primary leaf stage, a water diluted solution of a wettable powder or an emulsifiable concentrate of the compound of the present invention prepared in accordance with a conventional preparation method, was uniformly dropwise applied by a pipette so that the amount of active ingredients would be a prescribed amount. Further, paddy field soil was put into a 1/1,000,000 pot, followed by soil puddling to an irrigated water depth of from 3 to 4 cm. Next day, rice (Oryza sativa L.) (var.: Nihonbare) of two leaf stage was transplanted in a transplantation depth of 3 cm. On the 4th day after transplantation, the compound of the present invention was applied in the same manner as described above.
(§2) On the 13th to 17th day after application, the state of growth of barnyardgrass, Japanese bulrush and Japanese ribbon waparo was visually observed, and on the 20th to 23rd day after application, the state of growth of rice was visually observed, and the herbicidal effect was evaluated by a growth inhibition rate (%) of 0 (equivalent to the non-treated area) to 100% (complete kill).

Assay [2] has as its system Japanese ribbon waparo (Sagittaria pygmaea). Briefly: Test Example 3, paddy field pot, application to irrigated water. To be noted: applied at primary leaf stage, 13th to 17th day after application, read-out: Growth inhibition rate (%) Japanese ribbon waparo.
Description: as §1, §2

The subject of assay [3] is Japanese bulrush (Scirpus juncoides). The description is as above. To be noted: Schoenoplectiella juncoides, applied at 0.5 leaf stage, 13th to 17th day after application, read-out: Growth inhibition rate (%) Japanese bulrush.
Description: as §1, §2

The subject of assay [4] is barnyardgrass (Echinochloa oryzicola vasing.). Described as above. To be noted: applied at 0.5 leaf stage, 13th to 17th day after application, read-out: Growth inhibition rate (%) barnyard grass.
Description: as §1, §2

Assay [5] concerns crabgrass (Digitaria sanquinalis L.). Briefly: Test Example 2, soil application on the day after sowing. Conditions: 21st to 22nd day after application, visual, read-out: Growth inhibition rate (%) Crabgrass. The source says:
(§3) Upland field soil was put into a 1/170,000 hectare pot, and seeds of various plants (barnyardgrass (Echinochloa crus-galli L.), crabgrass (Digitaria sanquinalis L.), green foxtail (Setaria viridis L.), redroot pigweed (Amaranthus retroflexus L.), prickly sida (Sida spinosa L.), velvetleaf (Abutilon theophrasti MEDIC.), rice (Oryza sativa L.), corn (Zea mays L.), soybean (Glycine max Merr.)) and wheat (Triticum spp.) were sown. On the day after sowing, wettable powders or emulsifiable concentrates of the compounds of the present invention prepared in accordance with a conventional preparation method, were weighed so that the active ingredients became the prescribed amounts, and diluted with water in an amount corresponding to 500 liter per 1 hectare, followed by soil application with a small sprayer.
(§4) On the 21st to 22nd day after the application, the state of growth of the respective plants was visually observed, and the herbicidal effect was evaluated by a growth inhibition rate (%) of from 0 (equivalent to the non-treated area) to 100% (complete kill).

Another assay relates to rice (Oryza sativa L.). The description is as above. Conditions: 21st to 22nd day after application, visual, read-out: Growth inhibition rate (%) Rice.
Description: as §3, §4

In another assay the test system is corn (Zea mays L.). The description is as above. To be noted: 21st to 22nd day after application, visual, read-out: Growth inhibition rate (%) Corn.
Description: as §3, §4

Assay [6] has as its system barnyardgrass (Echinochloa crus-galli L.). The assay is described as above. To be noted: 21st to 22nd day after application, visual, read-out: Growth inhibition rate (%) Barnyardgrass.
Description: as §3, §4

Assay [7] concerns green foxtail (Setaria viridis L.). Described as above. Conditions: 21st to 22nd day after application, visual, read-out: Growth inhibition rate (%) Green foxtail.
Description: as §3, §4

In the next assay the test system is wheat (Triticum spp.). The assay is described as above. To be noted: 21st to 22nd day after application, visual, read-out: Growth inhibition rate (%) Wheat.
Description: as §3, §4

Assay [8] has as its system velvetleaf (Abutilon theophrasti MEDIC.). Described as above. To be noted: 21st to 22nd day after application, visual, read-out: Growth inhibition rate (%) Velvetleaf.
Description: as §3, §4

Assay [9] has as its system prickly sida (Sida spinosa L.). Described as above. Conditions: 21st to 22nd day after application, visual, read-out: Growth inhibition rate (%) Prickly sida.
Description: as §3, §4

For assay [10], the system named is redroot pigweed (Amaranthus retroflexus L.). The assay is described as above. To be noted: 21st to 22nd day after application, visual, read-out: Growth inhibition rate (%) Redroot pigweed.
Description: as §3, §4

Assay [11] deals with soybean (Glycine max Merr.). The assay is described as above. Conditions: 21st to 22nd day after application, visual, read-out: Growth inhibition rate (%) Soybean.
Description: as §3, §4

On to `COC(=O)OC(C)Oc1c(C(=O)c2ccc(S(C)(=O)=O)c(C(=O)OC)c2C)cnn1C` (centres unmarked) [Compound No. 1-2, Methyl 3-(5-(1-(methoxycarbonyloxy)ethoxy)-1-methyl-1H-pyrazole-4-carbonyl)-2-methyl-6-(methylsulfonyl)benzoate], for which the inhibition at 63 g/ha stood at 40% in assay [1], 95% in assay [2], 70% in assay [3] and 100% in [4]. Moreover, the inhibition at 250 g/ha in assay [5] was determined as 100%; in the assay on rice (Oryza sativa L.), 100%; in the assay on corn (Zea mays L.), 0%; in assay [6], 100%; in [7] it was 100%; with wheat (Triticum spp.) it was 20%. The inhibition at 250 g/ha turned out to be 100% in assay [8], 98% in [9], 100% in [10] and 70% in [11].

As to `CCOC(=O)OC(C)Oc1c(C(=O)c2ccc(S(C)(=O)=O)c(OCCOC(C)C)c2C)cnn1C` (centres unmarked) [Compound No. 1-5, Ethyl 1-(4-(3-(2-isopropoxyethoxy)-2-methyl-4-(methylsulfonyl)benzoyl)-1-methyl-1H-pyrazol-5-yloxy)ethyl carbonate], the inhibition at 63 g/ha in [1] amounted to 30%; in assay [2], 90%; in assay [3], 20%; in assay [4] it was 100%. Further, the inhibition at 250 g/ha in [5] stood at 95%; in the assay with rice (Oryza sativa L.) it was 80%; in the assay on corn (Zea mays L.), 10%; in [6], 100%; in [7], 100%; with wheat (Triticum spp.), 0%. For the same compound, the inhibition at 250 g/ha came to 100% in assay [8], 90% in assay [9], 100% in [10] and 10% in assay [11].

For `COCCOc1c(S(C)(=O)=O)ccc(C(=O)c2c(C)nn(C)c2OC(C)OC(=O)OC)c1C` (centres unmarked) [Compound No. 1-6, 1-(4-(3-(2-Methoxyethoxy)-2-methyl-4-(methylsulfonyl)benzoyl)-1,3-dimethyl-1H-pyrazol-5-yloxy)ethyl methyl carbonate], the inhibition at 63 g/ha in assay [1] is 30%; in [2], 60%; in assay [3] it was 70%; in assay [4] it was 100%. Also, the inhibition at 250 g/ha in assay [5] came out at 100%; in the assay on rice (Oryza sativa L.), 98%; with corn (Zea mays L.), 0%; in [6] it was 100%; in [7] it was 70%; with wheat (Triticum spp.), 5%. Further, the inhibition at 250 g/ha turned out to be 100% in [8], 99% in assay [9], 100% in [10] and 0% in assay [11].

For the compound `CCn1ncc(C(=O)c2ccc(S(C)(=O)=O)c(OCCOC)c2C)c1OC(C)OC(=O)OC` (centres unmarked) [Compound No. 2-1, 1-(1-Ethyl-4-(3-(2-methoxyethoxy)-2-methyl-4-(methylsulfonyl)benzoyl)-1H-pyrazol-5-yloxy)ethyl methyl carbonate], the inhibition at 63 g/ha turned out to be 20% in assay [1], 80% in assay [2], 80% in [3] and 100% in assay [4]. Besides, the inhibition at 250 g/ha in assay [5] turned out to be 100%; in the assay with rice (Oryza sativa L.) it was 98%; with corn (Zea mays L.), 0%; in assay [6], 95%; in assay [7] it was 100%; in the assay with wheat (Triticum spp.) it was 0%. The inhibition at 250 g/ha in assay [8] worked out at 100%; in assay [9], 90%; in assay [10], 100%; in [11], 0%.

Turning to `CCCn1ncc(C(=O)c2ccc(S(C)(=O)=O)c(OCCOC)c2C)c1OC(C)OC(=O)OCC` (centres unmarked) [Compound No. 3-1, Ethyl 1-(1-n-propyl-4-(3-(2-methoxyethoxy)-2-methyl-4-(methylsulfonyl)benzoyl)-1H-pyrazol-5-yloxy)ethyl carbonate], the inhibition at 63 g/ha stood at 30% in assay [1], 95% in assay [2], 90% in assay [3] and 100% in assay [4]. Besides, the inhibition at 250 g/ha in assay [5] is 80%; with rice (Oryza sativa L.) it was 20%; with corn (Zea mays L.), 0%; in [6], 60%; in assay [7] it was 60%; in the assay on wheat (Triticum spp.), 10%. Also, the inhibition at 250 g/ha stood at 80% in [8], 80% in assay [9], 40% in assay [10] and 0% in assay [11].

As for `COCCOc1c(S(C)(=O)=O)ccc(C(=O)c2cnn(C(C)C)c2OC(C)OC(=O)OC)c1C` (centres unmarked) [Compound No. 4-1, 1-(1-Isopropyl-4-(3-(2-methoxyethoxy)-2-methyl-4-(methylsulfonyl)benzoyl)-1H-pyrazol-5-yloxy)ethyl methyl carbonate], the inhibition at 63 g/ha in assay [1] came out at 40%; in [2] it was 70%; in [3], 98%; in assay [4], 100%. In addition, the inhibition at 250 g/ha in [5] was determined as 100%; in the assay with rice (Oryza sativa L.), 98%; in the assay with corn (Zea mays L.) it was 0%; in assay [6], 100%; in assay [7], 100%; in the assay with wheat (Triticum spp.), 10%. The inhibition at 250 g/ha was determined as 100% in assay [8], 95% in [9], 100% in assay [10] and 0% in assay [11].

As for `Cc1c(C(=O)c2cnn(C)c2O)ccc(S(C)(=O)=O)c1OCCC(C)C` [Compound No. 5-1, (5-Hydroxy-1-methyl-1H-pyrazol-4-yl)(3-(2-isopropylethoxy)-2-methyl-4-(methylsulfonyl)phenyl)ketone], the inhibition at 63 g/ha in assay [1] came to 30%; in assay [2] it was 95%; in [3], 20%; in assay [4] it was 60%. For the same compound, the inhibition at 250 g/ha was 98% in assay [5]; 98% with rice (Oryza sativa L.); 10% with corn (Zea mays L.); 98% in assay [6]; 95% in assay [7]; 20% with wheat (Triticum spp.). The inhibition at 250 g/ha in [8] was 100%; in assay [9], 98%; in assay [10], 100%; in [11], 0%.
